Key:
Assay in all cases: cells
EPLC-272H = assay type: functional, cell-based, Homo sapiens; conditions: Homo sapiens, EPLC-272H
Description: SANGER: Inhibition of human EPLC-272H cell growth in a cell viability assay.

U-118-MG = assay type: functional, cell-based, Homo sapiens; conditions: Homo sapiens, U-118-MG
Description: SANGER: Inhibition of human U-118-MG cell growth in a cell viability assay.

NCI-H810 = assay type: functional, cell-based, Homo sapiens; conditions: Homo sapiens, NCI-H810;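 also: IC50 reflects inhibition of cancer cell line growth, read out with a cell viability assay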
Description: SANGER: Inhibition of human NCI-H810 cell growth in a cell viability assay.

RMG-I = assay type: functional, cell-based, Homo sapiens; conditions: Homo sapiens, RMG-I;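 also: growth inhibition of human RMG-I cells, read out with a cell viability assay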
Description: SANGER: Inhibition of human RMG-I cell growth in a cell viability assay.

NCI-H2291 = assay type: functional, cell-based, Homo sapiens; conditions: Homo sapiens, NCI-H2291
Description: SANGER: Inhibition of human NCI-H2291 cell growth in a cell viability assay.

WM-115 = assay type: functional, cell-based, Homo sapiens; conditions: Homo sapiens, WM-115
Description: SANGER: Inhibition of human WM-115 cell growth in a cell viability assay.

BFTC-909 = assay type: functional, cell-based, Homo sapiens; conditions: Homo sapiens, BFTC-909
Description: SANGER: Inhibition of human BFTC-909 cell growth in a cell viability assay.

HT55 = assay type: functional, cell-based, Homo sapiens; conditions: Homo sapiens, HT55;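 also: cell viability readout measuring growth inhibition of human HT55 cells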
Description: SANGER: Inhibition of human HT55 cell growth in a cell viability assay.

TCC-SUP = assay type: functional, cell-based, Homo sapiens; conditions: Homo sapiens, TCC-SUP;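 also: growth inhibition of TCC-SUP cells, read out with a cell viability assay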
Description: SANGER: Inhibition of human TCCSUP cell growth in a cell viability assay.

LU-99A = assay type: functional, cell-based, Homo sapiens; conditions: Homo sapiens, LU-99A;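 also: growth inhibition of LU-99A cells, read out with a cell viability assay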
Description: SANGER: Inhibition of human LU-99A cell growth in a cell viability assay.

G-402 = assay type: functional, cell-based, Homo sapiens; conditions: Homo sapiens, G-402
Description: SANGER: Inhibition of human G-402 cell growth in a cell viability assay.

D-566MG = assay type: functional, cell-based, Homo sapiens; conditions: Homo sapiens, D-566MG
SW626 = assay type: functional, cell-based, Homo sapiens; conditions: Homo sapiens, SW626;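 also: growth inhibition of SW626 cells, measured with a cell viability assay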
Description: SANGER: Inhibition of human SW626 cell growth in a cell viability assay.

G-361 = assay type: functional, cell-based, Homo sapiens; conditions: Homo sapiens, G-361
CAL-33 = assay type: functional, cell-based, Homo sapiens; conditions: Homo sapiens, CAL-33;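 also: growth inhibition of CAL-33 cells, read out with a cell viability assay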
Description: SANGER: Inhibition of human CAL-33 cell growth in a cell viability assay.

EFO-27 = assay type: functional, cell-based, Homo sapiens; conditions: Homo sapiens, EFO-27;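 also: growth inhibition of EFO-27 cells, read out with a cell viability assay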
Description: SANGER: Inhibition of human EFO-27 cell growth in a cell viability assay.

NCI-H2452 = assay type: functional, cell-based, Homo sapiens; conditions: Homo sapiens, NCI-H2452;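 also: growth inhibition of NCI-H2452 cells, read out with a cell viability assay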
Description: SANGER: Inhibition of human NCI-H2452 cell growth in a cell viability assay.

PANC-08-13 = assay type: functional, cell-based, Homo sapiens; conditions: Homo sapiens, PANC-08-13;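 also: cell growth inhibition, measured with a cell viability assay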
Description: SANGER: Inhibition of human PANC-08-13 cell growth in a cell viability assay.

SF-295 = assay type: functional, cell-based, Homo sapiens; conditions: Homo sapiens, SF-295;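 also: growth inhibition of SF-295 cells, read out with a cell viability assay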
Description: SANGER: Inhibition of human SF295 cell growth in a cell viability assay.

OVCAR-5 = assay type: functional, cell-based, Homo sapiens; conditions: Homo sapiens, OVCAR-5;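 also: growth inhibition of human OVCAR-5 cells, read out with a cell viability assay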
Description: SANGER: Inhibition of human OVCAR-5 cell growth in a cell viability assay.

NB14 = assay type: functional, cell-based, Homo sapiens; conditions: Homo sapiens, NB14;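 also: growth inhibition of NB14 cells measured with a cell viability assay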
Description: SANGER: Inhibition of human NB14 cell growth in a cell viability assay.

MKN-7 = assay type: functional, cell-based, Homo sapiens; conditions: Homo sapiens, MKN-7;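 also: growth inhibition of MKN-7 cells, read out with a cell viability assay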
Description: SANGER: Inhibition of human MKN7 cell growth in a cell viability assay.

A-427 = assay type: functional, cell-based, Homo sapiens; conditions: Homo sapiens, A-427;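 also: growth inhibition of human A-427 cells, read out by a cell viability assay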
Description: SANGER: Inhibition of human A427 cell growth in a cell viability assay.

SN12C = assay type: functional, cell-based, Homo sapiens; conditions: Homo sapiens, SN12C;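 also: growth inhibition of human SN12C cells, measured by a cell viability assay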
Description: SANGER: Inhibition of human SN12C cell growth in a cell viability assay.

HMV-2 cell line = assay type: functional, cell-based, Homo sapiens; conditions: Homo sapiens, HMV-2;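 also: growth inhibition of HMV-II cells, read out with a cell viability assay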
Description: SANGER: Inhibition of human HMV-II cell growth in a cell viability assay.

CAL-12T = assay type: functional, cell-based, Homo sapiens; conditions: Homo sapiens, CAL-12T;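 also: growth inhibition of human CAL-12T cells, read out with a cell viability assay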
Description: SANGER: Inhibition of human CAL-12T cell growth in a cell viability assay.

C32 = assay type: functional, cell-based, Homo sapiens; conditions: Homo sapiens, C32;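 also: cell viability assay, with IC50 reflecting inhibition of C32 cell growth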
Description: SANGER: Inhibition of human C32 cell growth in a cell viability assay.

Daoy = assay type: functional, cell-based, Homo sapiens; conditions: Homo sapiens, Daoy;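 also: daoy cell growth inhibition, read out as cell viability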
Description: SANGER: Inhibition of human Daoy cell growth in a cell viability assay.

SW948 = assay type: functional, cell-based, Homo sapiens; conditions: Homo sapiens, SW948;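 also: growth inhibition of SW948 cells, read out with a cell viability assay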
Description: SANGER: Inhibition of human SW948 cell growth in a cell viability assay.

NCI-H358 = assay type: functional, cell-based, Homo sapiens; conditions: Homo sapiens, NCI-H358;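 also: growth inhibition of NCI-H358 human cells, read out with a cell viability assay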
Description: SANGER: Inhibition of human NCI-H358 cell growth in a cell viability assay.

HuCCT-1 = assay type: functional, cell-based, Homo sapiens, HuCCT1; conditions: Homo sapiens, HuCCT-1;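 also: growth inhibition of HuCCT-1 cells, read out by a cell viability assay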
Description: SANGER: Inhibition of human HuCCT1 cell growth in a cell viability assay.

23132-87 = assay type: functional, cell-based, Homo sapiens; conditions: Homo sapiens
Description: SANGER: Inhibition of human 23132-87 cell growth in a cell viability assay.

IGROV-1 = assay type: functional, cell-based, Homo sapiens; conditions: Homo sapiens, IGROV-1;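 also: reduction of IGROV-1 cell growth, read out with a viability assay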
Description: SANGER: Inhibition of human IGROV-1 cell growth in a cell viability assay.

Capan-2 = assay type: functional, cell-based, Homo sapiens; conditions: Homo sapiens, Capan-2;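 also: Capan-2 cell growth inhibition, read out with a viability assay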
Description: SANGER: Inhibition of human Capan-2 cell growth in a cell viability assay.

NB7 = assay type: functional, cell-based, Homo sapiens; conditions: Homo sapiens, NB7;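 also: growth inhibition of NB7 cells, read out with a cell viability assay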
Description: SANGER: Inhibition of human NB7 cell growth in a cell viability assay.

MKN-1 = assay type: functional, cell-based, Homo sapiens; conditions: Homo sapiens, MKN-1;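 also: growth inhibition of human MKN1 cells, read out by a cell viability measurement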
Description: SANGER: Inhibition of human MKN1 cell growth in a cell viability assay.

SK-HEP1 = assay type: functional, cell-based, Homo sapiens, SK-HEP-1; conditions: Homo sapiens, SK-HEP1;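 also: cell viability readout used to quantify reduction in proliferation of human SK-HEP-1 cells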
Description: SANGER: Inhibition of human SK-HEP-1 cell growth in a cell viability assay.

A673 = assay type: functional, cell-based, Homo sapiens; conditions: Homo sapiens, A673;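 also: growth inhibition of human A673 cells, read out through a cell viability assay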
Description: SANGER: Inhibition of human A673 cell growth in a cell viability assay.

BHY = assay type: functional, cell-based, Homo sapiens; conditions: Homo sapiens, BHY;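 also: cell growth inhibition read out by a viability assay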
Description: SANGER: Inhibition of human BHY cell growth in a cell viability assay.

CC(C)c1ccccc1Cc1cc(C(=O)Nc2ccc(S(=O)(=O)c3ccccc3C(C)(C)C)cc2)c(O)c(O)c1O
IC50 (EPLC-272H): 703 nM | IC50 (U-118-MG): 190 nM | IC50 (NCI-H810): 666 nM | IC50 (RMG-I): 207 nM | IC50 (NCI-H2291): 21000 nM | IC50 (WM-115): 1210 nM | IC50 (BFTC-909): 258 nM | IC50 (HT55): 651 nM | IC50 (TCC-SUP): 361 nM | IC50 (LU-99A): 274 nM | IC50 (G-402): 193 nM | IC50 (D-566MG): 116 nM | IC50 (SW626): 423 nM | IC50 (G-361): 125 nM | IC50 (CAL-33): 817 nM | IC50 (EFO-27): 117 nM | IC50 (NCI-H2452): 754 nM | IC50 (PANC-08-13): 3770 nM | IC50 (SF-295): 629 nM | IC50 (OVCAR-5): 576 nM | IC50 (NB14): 76.4 nM | IC50 (MKN-7): 4470 nM | IC50 (A-427): 44.7 nM | IC50 (SN12C): 1110 nM | IC50 (HMV-2 cell line): 309 nM | IC50 (CAL-12T): 1120 nM | IC50 (C32): 2020 nM | IC50 (Daoy): 141 nM | IC50 (SW948): 32700 nM | IC50 (NCI-H358): 1490 nM | IC50 (HuCCT-1): 348 nM | IC50 (23132-87): 324 nM | IC50 (IGROV-1): 454 nM | IC50 (Capan-2): 6040 nM | IC50 (NB7): 29.3 nM | IC50 (MKN-1): 623 nM | IC50 (SK-HEP1): 1510 nM | IC50 (A673): 53.8 nM | IC50 (BHY): 702 nM

— ChEMBL document CHEMBL1201861, “Genomics of Drug Sensitity in Cancer screening data, Wellcome Trust Sanger Institute”
